Test results as given in patent US20260258083A1, “T Cell Engager Masking Molecules” (AMGEN INC., priority 2023, published 2026).
Where a SMILES comes first, the peptide text is derived from it. Where no end group is shown, it is not given here. Side-chain parts run from the residue outwards. [ ]: non-standard residue; d: D form. maleimide = maleimide-thiosuccinimide linker; pGlu = O=C1CC[C@@H](C(=O)O)N1; P(Dap) = not defined here; PEG = not defined here

Legend:
[1] = tested on: anti-CD3ε paratope of a CD3ε binding domain of a TCE; assay: Affinity class of the binding peptide of the masking molecule
Description: The exact value may vary with the respective TCE. However, the […]

[2] = tested on: CDH3×MSLN dual targeting TCE with two CD3e binders (SEQ ID NO 255); assay: TDCC assay, inhibition of cytotoxicity (Example 15); assay type: cell-based; conditions: same peptide concentration; PBMC E:T 10:1, 48 or 72 hours
Protocol: Example 15: TCE Masking Molecule Inhibition of Cytotoxicity and Cytokine Release of Representative CDH3×MSLN Dual Targeting TCE with Two CD3e Binders (SEQ ID NO 255)
In vitro potency of CD3e pepPEG was indirectly assessed by measuring in vitro activity of T cell engager (TCE) using T cell dependent cellular cytotoxicity (TDCC) assay. Either 100 pM or 300 pM of TCE was mixed with increasing concentrations of CD3e pepPEG before the mixture is treated to cells. Peripheral blood mononuclear cells (PBMCs) as effector cells were co-cultured with tumor target cells at an effector cell-to-target cell ratio of 10:1 in the presence of mixture of TCE and CD3e pepPEG for 48 hours or 72 hours at 37° C. Cytotoxicity of TCE was assessed by Steady-Glo (Promega) for luciferase-tagged target cells and CellTiter-Glo (Promega) for non-luciferase-tagged target cells after plates were washed to eliminate T cells. Specific cytotoxicity curves and EC50 values were derived using Prism 7.04 (GraphPad). Cytokine production was assessed in supernatants from TDCC assays using electro-chemiluminescence assays (MesoScale Discovery).

[3] = tested on: STEAP1×CD3e heterodimeric TCE; assay: T cell dependent cellular cytotoxicity (TDCC) assay, inhibition of TCE cytotoxicity; assay type: cell-based; conditions: STEAP1×CD3, CLDN6×CD3 and DLL3×CD3 TCE; PBMC E:T 10:1, 48 hours
Protocol: Example 12: In Vitro Cytotoxicity and Cytokine Release Inhibition by Binding Peptides
In vitro potency of CD3e pepPEG was indirectly assessed by measuring in vitro activity of T cell engager (TCE) using T cell dependent cellular cytotoxicity (TDCC) assay. […] Cytokine production was assessed in supernatants from TDCC assays using electro-chemiluminescence assays (MesoScale Discovery).

[4] = tested on: FLT3×CD3 TCE (SEQ ID NO: 93); assay: Association kinetics by KinExA (Table 5); assay type: binding; conditions: for koff: KinExA, FLT3×CD3 TCE; for fold-koff / fold-kon: relative to the parent CD3ε epitope peptide
Protocol: (§1) • 1. Preparation of NHS-activated sepharose fast-flow beads: • 2. Fast flow sepharose suspension in 100% IPA, washed twice with milliQ H20, mild centrifugation to pool beads in between wash steps. • 3. Equilibrated in 0.15 M NaBO3, pH=8.5 buffer • 4. Added 80 mM PDEA to activate the resin for thiol exchange, 10 mins, r.t. • 5. Equilibrated resin with Hepes Buffered Saline-P (0.01 M HEPES pH 7.4, 0.15 M NaCl, 0.005% v/v Surfactant P2), pH 7.4 binding buffer • 6. Added 30 μg/mL of binding peptide, […] (SEQ ID NO; 297) or pGlu-[…] (SEQ ID NO: 300), reaction for 1 hr to functionalize resin. • 7. Quench with 10 mM L-Cys for 1 hour. • 8. Constant Binding Partner was FLT3×CD3 TCE (SEQ ID NO: 93), MW 105720, 3.2 mg/mL 31.21 uM was diluted to 333 pM and the pGlu-[…] peptide or pGlu-[…]-PEG (Pep-PEG v2) were titrated from 1 uM or 400 nM down to 2.3 pM concentrations relative to effective peptide molarity.
Association Kinetics by KinExA

[5] = biological target: FLT3×CD3 TCE (SEQ ID NO: 93); assay: Equilibrium binding affinity measurement by KinExA (Table 5); conditions: for Kd: KinExA, FLT3×CD3 TCE as constant binding partner; for fold-Kd: affinity gain relative to the parent CD3ε epitope peptide
Protocol: Equilibrium Binding Affinity Measurement by KinExA
as §1

[6] = tested on: CDH3-CD3-MSLN-CD3 TCE (SEQ ID NO 255); assay: SPR assay of immobilized peptides binding with TCE; conditions: bivalent analyte model
Protocol: (§2) Example 14: SPR Assay of Immobilized Peptides Binding with TCE
(§3) A cytiva CM5 chip was first functionalized with PDEA (2-(2pyridinyldithio)ethaneamine) under standard ((1-ethyl-3-(3-dimethylaminopropyl)carbodiimide)/(N-hydroxysuccinimide) EDC/NHS coupling conditions where the PDEA is dissolved to 20 mM and 1 M NaCl in 0.1 M sodium acetate pH 4.3. Binding peptides were dissolved to 50- or 100-ug/mL respectively in PBST, pH 6.5, and coupling times were optimized to yield the desired surface density.

[7] = tested on: CLDN6xCD3 TCE SEQ ID NO 340; assay: SPR assay of immobilized peptides binding with TCE; conditions: immobilized peptide, Kinetic 1:1 Binding
Protocol: as §2, §3

[8] = tested on: DLL3xCD3 TCE SEQ ID NO 104; assay: SPR assay of immobilized peptides binding with TCE; conditions: immobilized peptide, Kinetic 1:1 Binding
Protocol: as §2, §3

[9] = tested on: FLT3xCD3 TCE SEQ ID NO 93; assay: SPR assay of immobilized peptides binding with TCE; conditions: immobilized peptide, Kinetic 1:1 Binding
Protocol: as §2, §3

[10] = tested on: Steap 1xCD3 TCE SEQ ID NO 373 + 374 + 375; assay: SPR assay of immobilized peptides binding with TCE; conditions: immobilized peptide, Kinetic 1:1 Binding
Protocol: as §2, §3

[11] = Mouse pharmacokinetic study, IV (Example 2); conditions: BL/6, mouse, plasma, iv, 1 mg/kg
Protocol: Example 2: Mouse Pharmacokinetic Study to Evaluate In Vivo PK
The 4-arm 20 kDa PepPOL conjugate was dosed by IV administration to BL/6 mice at 0.82 or 8.2 mg/kg dose levels. […] The PK profiles for each peptide were evaluated by quantifying plasma concentrations of total intact peptide material over time (see methods).

[12] = masking molecules tested with respect to TCE of SEQ ID NO 255 (Table 20)
[13] = masking molecules of Example 12

Chain of FLT3×CD3 TCE (SEQ ID NO: 93) (as listed by the source): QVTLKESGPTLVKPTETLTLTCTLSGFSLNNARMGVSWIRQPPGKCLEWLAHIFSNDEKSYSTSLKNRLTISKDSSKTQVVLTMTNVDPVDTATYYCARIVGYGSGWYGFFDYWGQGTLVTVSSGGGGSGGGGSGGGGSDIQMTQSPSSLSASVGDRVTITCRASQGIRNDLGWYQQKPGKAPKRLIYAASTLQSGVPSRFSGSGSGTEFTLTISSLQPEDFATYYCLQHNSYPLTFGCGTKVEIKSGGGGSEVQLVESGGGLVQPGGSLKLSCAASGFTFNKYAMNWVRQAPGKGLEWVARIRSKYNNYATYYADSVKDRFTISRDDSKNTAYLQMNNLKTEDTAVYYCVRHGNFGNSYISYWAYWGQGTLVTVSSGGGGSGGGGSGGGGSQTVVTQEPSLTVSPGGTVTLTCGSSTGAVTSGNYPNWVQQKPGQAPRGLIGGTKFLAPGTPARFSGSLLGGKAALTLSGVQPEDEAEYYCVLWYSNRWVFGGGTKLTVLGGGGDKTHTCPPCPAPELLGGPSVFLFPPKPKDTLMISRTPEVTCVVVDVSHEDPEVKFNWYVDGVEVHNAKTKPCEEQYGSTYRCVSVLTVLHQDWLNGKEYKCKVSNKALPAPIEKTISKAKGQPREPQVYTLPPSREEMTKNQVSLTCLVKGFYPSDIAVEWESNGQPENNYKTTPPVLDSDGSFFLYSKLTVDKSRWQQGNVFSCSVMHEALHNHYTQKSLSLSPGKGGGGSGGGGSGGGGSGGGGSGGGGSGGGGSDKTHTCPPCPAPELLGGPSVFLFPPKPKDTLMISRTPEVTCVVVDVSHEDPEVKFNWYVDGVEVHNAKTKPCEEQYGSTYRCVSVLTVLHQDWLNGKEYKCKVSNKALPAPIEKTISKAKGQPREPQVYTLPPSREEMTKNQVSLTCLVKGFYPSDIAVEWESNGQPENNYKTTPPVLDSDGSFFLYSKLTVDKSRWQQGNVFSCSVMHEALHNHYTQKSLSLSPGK
Chain of CDH3×MSLN dual targeting TCE with two CD3e binders (SEQ ID NO 255) (as listed by the source): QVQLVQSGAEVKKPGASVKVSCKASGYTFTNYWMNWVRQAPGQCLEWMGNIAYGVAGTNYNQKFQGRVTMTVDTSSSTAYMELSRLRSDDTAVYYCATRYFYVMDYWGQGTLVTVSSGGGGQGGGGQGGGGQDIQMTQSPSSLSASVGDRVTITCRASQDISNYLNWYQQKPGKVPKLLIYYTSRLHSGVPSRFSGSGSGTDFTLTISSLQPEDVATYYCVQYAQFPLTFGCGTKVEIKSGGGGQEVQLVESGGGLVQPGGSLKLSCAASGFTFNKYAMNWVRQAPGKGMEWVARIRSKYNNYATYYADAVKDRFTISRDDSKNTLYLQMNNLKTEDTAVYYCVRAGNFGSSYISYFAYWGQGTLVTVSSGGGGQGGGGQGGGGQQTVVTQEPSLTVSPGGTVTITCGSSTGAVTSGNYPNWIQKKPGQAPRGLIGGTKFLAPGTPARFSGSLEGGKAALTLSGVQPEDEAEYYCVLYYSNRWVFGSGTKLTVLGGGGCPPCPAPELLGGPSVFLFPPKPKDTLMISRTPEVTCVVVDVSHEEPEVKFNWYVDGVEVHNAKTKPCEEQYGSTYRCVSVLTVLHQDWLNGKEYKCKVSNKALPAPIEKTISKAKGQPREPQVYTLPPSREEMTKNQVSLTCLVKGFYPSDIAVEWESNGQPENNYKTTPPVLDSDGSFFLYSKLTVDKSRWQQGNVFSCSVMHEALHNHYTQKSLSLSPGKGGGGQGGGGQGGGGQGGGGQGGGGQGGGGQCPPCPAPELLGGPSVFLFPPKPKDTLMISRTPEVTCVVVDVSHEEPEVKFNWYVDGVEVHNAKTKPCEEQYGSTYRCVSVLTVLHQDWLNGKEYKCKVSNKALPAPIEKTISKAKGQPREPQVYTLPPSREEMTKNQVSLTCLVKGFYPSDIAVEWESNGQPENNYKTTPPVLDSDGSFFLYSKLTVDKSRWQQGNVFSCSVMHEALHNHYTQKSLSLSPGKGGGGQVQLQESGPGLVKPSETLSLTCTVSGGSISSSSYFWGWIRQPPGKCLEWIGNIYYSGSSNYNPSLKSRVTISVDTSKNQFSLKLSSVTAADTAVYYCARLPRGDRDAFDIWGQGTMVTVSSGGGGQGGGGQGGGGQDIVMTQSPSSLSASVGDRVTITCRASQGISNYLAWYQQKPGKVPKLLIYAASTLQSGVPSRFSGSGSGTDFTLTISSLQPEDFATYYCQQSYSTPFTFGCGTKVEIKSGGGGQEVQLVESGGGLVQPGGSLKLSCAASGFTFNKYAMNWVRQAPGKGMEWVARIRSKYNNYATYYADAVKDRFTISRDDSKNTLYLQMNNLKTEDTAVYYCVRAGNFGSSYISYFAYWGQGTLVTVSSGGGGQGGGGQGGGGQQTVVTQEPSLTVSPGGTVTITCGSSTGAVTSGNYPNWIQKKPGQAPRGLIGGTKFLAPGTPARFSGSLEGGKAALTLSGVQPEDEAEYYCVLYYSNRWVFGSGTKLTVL
Chain of Steap 1xCD3 TCE SEQ ID NO 373 + 374 + 375 (as listed by the source): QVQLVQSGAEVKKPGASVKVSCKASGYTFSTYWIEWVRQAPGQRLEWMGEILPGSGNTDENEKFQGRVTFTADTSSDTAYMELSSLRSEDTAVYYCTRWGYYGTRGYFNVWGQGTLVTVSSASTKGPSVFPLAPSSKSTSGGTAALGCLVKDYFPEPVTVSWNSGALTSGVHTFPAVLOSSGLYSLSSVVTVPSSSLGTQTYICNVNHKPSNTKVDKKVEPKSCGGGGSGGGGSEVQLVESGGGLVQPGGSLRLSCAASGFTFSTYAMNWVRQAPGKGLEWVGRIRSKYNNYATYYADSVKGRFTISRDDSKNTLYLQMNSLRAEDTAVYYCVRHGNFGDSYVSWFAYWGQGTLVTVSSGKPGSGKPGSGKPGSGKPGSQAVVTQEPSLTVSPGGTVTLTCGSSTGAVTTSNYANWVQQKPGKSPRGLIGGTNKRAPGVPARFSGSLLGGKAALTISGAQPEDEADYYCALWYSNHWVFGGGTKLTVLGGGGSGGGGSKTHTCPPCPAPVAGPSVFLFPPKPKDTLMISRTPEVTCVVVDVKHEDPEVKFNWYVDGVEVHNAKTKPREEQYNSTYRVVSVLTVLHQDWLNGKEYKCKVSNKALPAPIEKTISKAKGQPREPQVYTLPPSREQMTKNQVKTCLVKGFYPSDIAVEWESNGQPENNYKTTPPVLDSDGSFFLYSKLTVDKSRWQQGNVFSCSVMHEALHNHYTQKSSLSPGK
Chain of Steap 1xCD3 TCE SEQ ID NO 373 + 374 + 375 (as listed by the source partner): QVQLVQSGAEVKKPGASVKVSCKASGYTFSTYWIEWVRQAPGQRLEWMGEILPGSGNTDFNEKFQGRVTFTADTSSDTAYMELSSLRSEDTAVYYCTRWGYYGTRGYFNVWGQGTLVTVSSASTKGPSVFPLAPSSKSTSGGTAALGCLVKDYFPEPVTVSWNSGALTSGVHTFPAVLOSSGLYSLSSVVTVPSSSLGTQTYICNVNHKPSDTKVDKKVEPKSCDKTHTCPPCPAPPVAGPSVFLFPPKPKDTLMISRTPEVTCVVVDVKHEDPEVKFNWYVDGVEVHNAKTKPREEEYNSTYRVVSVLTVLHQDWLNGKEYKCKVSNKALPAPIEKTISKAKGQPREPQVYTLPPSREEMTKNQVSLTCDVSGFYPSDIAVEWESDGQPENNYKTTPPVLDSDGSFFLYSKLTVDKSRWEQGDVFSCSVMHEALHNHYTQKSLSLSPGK
Chain of Steap 1xCD3 TCE SEQ ID NO 373 + 374 + 375 (as listed by the source partner): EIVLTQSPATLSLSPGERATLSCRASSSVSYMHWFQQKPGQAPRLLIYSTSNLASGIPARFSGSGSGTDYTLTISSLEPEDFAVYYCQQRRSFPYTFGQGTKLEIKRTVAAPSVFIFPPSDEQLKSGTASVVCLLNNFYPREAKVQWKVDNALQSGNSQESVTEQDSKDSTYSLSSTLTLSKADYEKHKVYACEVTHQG
Chain of DLL3xCD3 TCE SEQ ID NO 104 (as listed by the source): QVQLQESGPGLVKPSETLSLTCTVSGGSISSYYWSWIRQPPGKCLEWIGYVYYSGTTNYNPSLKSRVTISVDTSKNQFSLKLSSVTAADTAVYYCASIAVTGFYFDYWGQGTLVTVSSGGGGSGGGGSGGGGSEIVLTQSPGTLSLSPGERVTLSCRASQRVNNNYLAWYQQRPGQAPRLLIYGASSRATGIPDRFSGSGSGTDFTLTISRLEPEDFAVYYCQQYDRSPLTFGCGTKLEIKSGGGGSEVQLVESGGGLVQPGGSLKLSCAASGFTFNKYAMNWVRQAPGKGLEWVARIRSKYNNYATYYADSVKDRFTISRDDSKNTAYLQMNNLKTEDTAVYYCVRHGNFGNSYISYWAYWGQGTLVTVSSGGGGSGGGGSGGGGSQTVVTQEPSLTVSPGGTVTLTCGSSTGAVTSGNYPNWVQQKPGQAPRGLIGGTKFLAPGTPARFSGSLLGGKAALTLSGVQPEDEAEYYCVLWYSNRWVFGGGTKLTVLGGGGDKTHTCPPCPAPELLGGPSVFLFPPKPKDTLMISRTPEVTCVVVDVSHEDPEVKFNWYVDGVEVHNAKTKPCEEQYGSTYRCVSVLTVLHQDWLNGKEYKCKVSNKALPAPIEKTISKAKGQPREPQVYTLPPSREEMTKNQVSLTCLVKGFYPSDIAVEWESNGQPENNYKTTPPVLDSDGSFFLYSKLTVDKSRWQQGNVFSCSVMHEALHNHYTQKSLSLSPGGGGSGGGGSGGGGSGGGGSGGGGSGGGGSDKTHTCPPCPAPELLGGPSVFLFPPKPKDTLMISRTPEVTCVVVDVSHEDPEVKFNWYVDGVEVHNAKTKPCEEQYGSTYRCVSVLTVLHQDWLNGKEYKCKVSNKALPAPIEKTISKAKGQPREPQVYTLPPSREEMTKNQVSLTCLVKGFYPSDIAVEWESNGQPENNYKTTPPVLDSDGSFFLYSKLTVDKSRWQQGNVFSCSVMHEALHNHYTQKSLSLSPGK

For “pE-DGEEELKGC (PEG)-NH2 [79676-1] ([pGlu]DGEEELKGC(PEG)-NH2; not fully specified; printed as pE-DGEEELKGC (PEG)-NH2; reading uncertain; also: PEG type and size not given here)”, the Affinity [1, 12] was “Intermediote” and the “inhibition of cytotoxicity, in vitro potency (FIG. 20)” value (“inhibition of cytotoxicity” below) [2] was “comparable results among each other”.
In the case of “pE-DGNEELKGC (PEG)-NH2 [79674-1] ([pGlu]DGNEELKGC(PEG)-NH2; not fully specified; printed as pE-DGNEELKGC (PEG)-NH2; reading uncertain; also: PEG type and size not given here)”, the Affinity [1, 13] is reported as “High (an affinity indicated as Kd of about 0.05 to about 10 nM, typically 0.1 pM to 10 nM or 500 pM to 5 nM is considered of “high” affinity)”, the Affinity [1, 12] is reported as “High (an affinity indicated as Kd of about 0.05 to about 10 nM, typically 0.1 pM to 10 nM or 500 pM to 5 nM is considered of “high” affinity)” and the “inhibition activity against TCE cytotoxicity (FIG. 15)” value [3] is reported as “highest inhibition activity”.
For “pE-DGEEELKGK (PEG)-OH ([pGlu]DGEEELKGK(PEG 20 kDa)-OH; not fully specified) [79921-1]”, the Affinity [1, 12] was “Intermediate (an affinity of about 10 to 150, preferably 10 to 100 mM is considered of “high” affinity)”.
With “pE-DGEEELKGK (mPEG)-OH ([pGlu]DGEEELKGK(mPEG)-OH; numbers in words are those of the source; also: Lys side chain linked via thioether to 20 kDa mPEG) [82138-1]” the Affinity [1, 12] was “Intermediate (an affinity of about 10 to 150, preferably 10 to 100 mM is considered of “high” affinity)”.
In the case of QDGNEEMG [reference compound], the “koff” value [4] is reported as 0.0248 s⁻¹.
For QDGNEEMGKQDGNEEMG, the “koff” value [4] was 0.00497 s⁻¹.
For QDGNEEMGQDGNEEMG, the “koff” value [4] was 0.00586 s⁻¹.
For QDGNEEMGK, the “koff” value [4] was 0.0179 s⁻¹.
With “pE-DGNEELKGC (PEG)-OH (N-terminal pyroglutamate, 20K PEG on Cys) [71203-2]” the Affinity [1, 13] was “High (an affinity indicated as Kd of about 0.05 to about 10 nM, typically 0.1 pM to 10 nM or 500 pM to 5 nM is considered of “high” affinity)” and the Affinity [1, 12] was “High (an affinity indicated as Kd of about 0.05 to about 10 nM, typically 0.1 pM to 10 nM or 500 pM to 5 nM is considered of “high” affinity)”.
With “QDGNEEMG-K(Nϵ)-GMEENGDQ (chain 1 QDGNEEMGK; also: branched: chains joined through a Lys, chain 2 on Lys Nε, direction not given here)” the Kd [5] was 1.03 nM, the fold-Kd [5] was 21.65 and the “koff” value [4] was 0.00447 s⁻¹. For the same molecule, the fold-koff [4] was 0.25 and the fold-kon [4] was 5.38.
With “pGlu-DGNEELKGC ([pGlu]DGNEELKGC; also: entry DGNEELKGC marks its position 1 as pyroglutamic acid)” the “fast component for the off-rate” value [6] was 0.0212 s⁻¹, the “fast component of the on-rate” value [6] was 2.42e+06 M⁻¹ s⁻¹ and the “ka” value [7] was 2.72e+06 M⁻¹ s⁻¹. The “kd” value [7] was 0.0038 s⁻¹, the “ka” value [8] was 2.14e+06 M⁻¹ s⁻¹ and the “kd” value [8] was 0.00279 s⁻¹. The “ka” value [9] was 1.88e+06 M⁻¹ s⁻¹, the “kd” value [9] was 0.0024 s⁻¹ and the “ka” value [10] was 2e+06 M⁻¹ s⁻¹. The “kd” value [10] was 0.00514 s⁻¹.
For “pE-DGNEELKGC (PEG)-NH2 [79675-1] ([pGlu]DGNEELKGC-NH2; also: PEG attached, size and site not given here in name)”, the Affinity [1, 13] was “High (an affinity indicated as Kd of about 0.05 to about 10 nM, typically 0.1 pM to 10 nM or 500 pM to 5 nM is considered of “high” affinity)”, the Affinity [1, 12] was “High (an affinity indicated as Kd of about 0.05 to about 10 nM, typically 0.1 pM to 10 nM or 500 pM to 5 nM is considered of “high” affinity)” and the “inhibition activity against TCE cytotoxicity (FIG. 15)” value [3] was “highest inhibition activity”.
In the case of “QDGNEEMG-P(Dap)-GMEENGDQ (chain 1 QDGNEEMG-{P(Dap)}; reading uncertain; also: chains linked via Dap residue 'P(Dap)')”, the Kd [5] is reported as 1.1 nM, the fold-Kd [5] is reported as 32.55 and the “koff” value [4] is reported as 0.0075 s⁻¹. The fold-koff [4] was 0.30 and the fold-kon [4] was 6.36.
In the case of “pE-DGNEELKGK (mPEG)-OH ([pGlu]DGNEELKGK([acetamide‑thioether-mPEG 20 kDa])-OH) [73136-2]”, the Affinity [1, 13] is reported as “High (an affinity indicated as Kd of about 0.05 to about 10 nM, typically 0.1 pM to 10 nM or 500 pM to 5 nM is considered of “high” affinity)”, the Affinity [1, 12] is reported as “High (an affinity indicated as Kd of about 0.05 to about 10 nM, typically 0.1 pM to 10 nM or 500 pM to 5 nM is considered of “high” affinity)” and the “inhibition of cytotoxicity” value [2] is reported as “comparable results among each other”.
In the case of `CSCC[C@H](NC(=O)CNC(=O)[C@H](CCCCN)NC(=O)CNC(=O)[C@H](CCSC)NC(=O)[C@H](CCC(=O)O)NC(=O)[C@H](CCC(=O)O)NC(=O)[C@H](CC(N)=O)NC(=O)CNC(=O)[C@H](CC(=O)O)NC(=O)[C@@H](N)CCC(N)=O)C(=O)N[C@@H](CCC(=O)O)C(=O)N[C@@H](CCC(=O)O)C(=O)N[C@@H](CC(N)=O)C(=O)NCC(=O)N[C@@H](CC(=O)O)C(=O)N[C@@H](CCC(N)=O)C(=O)O` (H-QDGNEEMGKGMEENGDQ-OH), the half-life [11] is reported as 3 to 10 min.
In the case of “pE-DGEEELKGC (PEG)-NH2 [79677-1] ([pGlu]DGEEELKGC([maleimide-4‑arm PEG 5 kDa])-NH2; also: 4-arm PEG conjugate, number of peptide copies not given here)”, the Affinity [1, 12] is reported as “Intermediate (an affinity of about 10 to 150, preferably 10 to 100 mM is considered of “high” affinity)” and the “inhibition of cytotoxicity” value [2] is reported as “comparable results among each other”.
For “pE-DGNEELKGK (PEG)-OH ([pGlu]DGNEELKGK-OH; not fully specified (residue 10); printed as pE-DGNEELKGK (PEG)-OH) [73135-2]”, the Affinity [1, 13] was “High (an affinity indicated as Kd of about 0.05 to about 10 nM, typically 0.1 pM to 10 nM or 500 pM to 5 nM is considered of “high” affinity)” and the Affinity [1, 12] was “High (an affinity indicated as Kd of about 0.05 to about 10 nM, typically 0.1 pM to 10 nM or 500 pM to 5 nM is considered of “high” affinity)”.
For (QDGNEEMG)3K, the “koff” value [4] was 0.00016 s⁻¹.
In the case of `CSCC[C@H](NC(=O)CNC(=O)[C@H](CCCCN)NC(=O)CNC(=O)[C@H](CCSC)NC(=O)[C@H](CCC(=O)O)NC(=O)[C@H](CCC(=O)O)NC(=O)[C@H](CC(N)=O)NC(=O)CNC(=O)[C@H](CC(=O)O)NC(=O)[C@@H](N)CCC(N)=O)C(=O)N[C@@H](CCC(=O)O)C(=O)N[C@@H](CCC(=O)O)C(=O)N[C@@H](CC(N)=O)C(=O)NCC(=O)N[C@@H](CC(=O)O)C(=O)N[C@@H](CCC(N)=O)C(=O)N[C@@H](CS)C(=O)O` (H-QDGNEEMGKGMEENGDQC-OH; N-terminus and C-terminus assumed), the half-life [11] is reported as 3 to 10 min.
With QDGNEEMGGMEENGDQ the “koff” value [4] was 0.00471 s⁻¹.
